Experimental data as given in article PMC6934184, “Selective DNA-PKcs inhibition extends the therapeutic index of localized radiotherapy and chemotherapy” (The Journal of Clinical Investigation, 2019).

Assays:
[1] = plasma pharmacokinetics across mouse strains and doses; type: in vivo
Description: by determining the absorbance at 570 nm of SRB stain dissolved in Tris base (10 mM, pH 10.5) using a spectrophotometer (BMG Labtech).
In vivo pharmacokinetic analyses
All animal experiments were performed in accordance with the Animals (Scientific Procedures) 1986 Act. 8-9 week old mice were purchased from Charles River Laboratories and housed under specific pathogen-free conditions under 12 hour light/dark cycles.
Female CD-1, CD-1 nude, BALB/c nude and C57BL/6 mice were treated with NU5455 (30 or 100 mg/kg prepared in 1% (v/v) acetic acid or NMP:Encapsin (30% aq):PEG4000 (1:6:3 v/v/v) dosed by oral gavage. Blood samples were collected into heparinized tubes at 15, 30, 60, 180 and 360 minutes post-gavage.
Blood samples were centrifuged at 6700 x g for 3 minutes, the plasma removed and stored at -20°C prior to analysis for drug by HPLC with fluorescence detection. Aliquots of plasma (50 µl) were vigorously vortexed with acetonitrile (450 µl) and the precipitate removed by centrifugation at 6700 x g for 5 minutes. […]
Samples (20 µl) were applied to a 10 x 0.46 cm Genesis C18 4 µm column (Grace Vydac) fitted with an in-line filter. […] Analytes were detected by fluorescence at 390 nm following excitation at 242 nm. Plasma concentrations were determined using linear standard curves (0.01 µM – 10 µM, R2 > 0.98) generated by extracting compounds from […]

[2] = system: A549 subcutaneous xenografts; test: subcutaneous A549 xenograft with localized radiation; type: in vivo, mouse; settings: NU5455 30 mg/kg oral 30 min before 10 Gy
Description: Subcutaneous non–small cell lung cancer xenografts were generated in CD-1 nude or BALB/c nude mice using A549 and Calu-6 cells, respectively, as previously described ([53]). When tumors reached 100 mm^3, mice were randomized into 4 groups (n = 7–9 per group) to receive (a) vehicle (orally) 30 minutes before mock radiation, (b) NU5455 (30 mg/kg orally) 30 minutes before mock radiation, (c) targeted tumor radiation at a single dose of 3.3 or 10 Gy, or (d) NU5455 (30 mg/kg orally) 30 minutes before 3.3 Gy or 10 Gy targeted tumor radiation. For targeted irradiation of subcutaneous tumors, anesthetized mice were restrained in a lead-shielded container with only the tumor exposed, and x-ray radiation applied using an RS320 irradiation system (Gulmay Medical) at a dose rate of 1.82 Gy/min. […]
NSCLC subcutaneous xenografts were generated as previously described ( 53). […] Mouse weights and tumor volumes (1/2 x length x width x depth) were measured three times a week.
Targeted radiotherapy in subcutaneous and orthotopic NSCLC xenograft models When subcutaneous xenografts reached 100 mm3, mice were randomized into four groups (n = 7 - 11/group): (i) N-Methyl-2-pyrrolidone (NMP): 30% Encapsin : PEG400 (1:6:3 v/v/v) vehicle p.o. 30 minutes prior to mock radiation. […] The remaining mice were monitored for tumor growth until the sizes of tumo rs reached 400 mm 3 or up to 38 days after initiation of […]

CN(C(=O)CN1CCOCC1)c1ccc2sc3c(-c4cccc5c(=O)cc(N6CC7CCC(C6)O7)oc45)cccc3c2c1 [NU5455]
plasma pharmacokinetic profile, CD-1 nude versus C57BL/6 mice ([1]; 30 mg/kg oral): comparable
duration of plasma concentrations ([1]; 100 mg/kg oral, versus 30 mg/kg): longer duration
antitumor activity with radiation [2]: enhanced the antitumor activity
